Data taken from patent publication US3996359A, “Novel stereoisomeric component A of stereoisomeric mixtures of 2'-unsymmetrical 16,17-methylenedioxy steroid 21-acylates, compositions thereof, and method of treating therewith” (AB Bofors, priority 1972, dated 1976).

Test system: rats subjected to adrenalectomy (granuloma around implanted cotton wads)
Assay: granulom test (cotton-pellet test) on rats subjected to adrenalectomy: granuloma growth, thymus weight, body weight increase
Type: in vivo, rat (Sprague-Dawley)
Conditions: for Dose required to obtain 50% inhibition of Granuloma growth: Table 3, adrenalectomized young male Sprague-Dawley rats, topical in implanted cotton wads, day 8; for Dose required to obtain 25% inhibition of Body weight Increase / Dose required to obtain 50% inhibition of Thymus weight: rat, in vivo, 11520 min

SMILES	Dose required to obtain 50% inhibition of Granuloma growth	Dose required to obtain 25% inhibition of Body weight Increase	Dose required to obtain 50% inhibition of Thymus weight
CCCCCC1OC2CC3C4CCC5=CC(=O)C=CC5(C)C4(F)C(O)CC3(C)C2(C(=O)CO)O1 (mixture of isomers) [5 A+B]	17 γ/animal	> 270 γ/animal	130 γ/animal
CCCC1O[C@@H]2C[C@H]3[C@@H]4CCC5=CC(=O)C=C[C@]5(C)[C@@]4(F)[C@@H](O)C[C@]3(C)[C@]2(C(=O)COC(=O)c2cccnc2)O1 (single isomer, unassigned) [21 A]	< 3 γ/animal	70 γ/animal	70 γ/animal
